From patent publication US12116636B2, “Methods for evaluating tumor cell spheroids using 3D microfluidic cell culture device” (Dana-Farber Cancer Institute, Inc., priority 2017, dated 2024)

Tests used:
B16F10 MDOTS = test: Bead-based cytokine profiling of MDOTS conditioned media; format: cell-based, murine; conditions: Cmpd1 1 μM ± αPD-1
Protocol: (§1) Fresh tumor specimens (murine and human patients) were received in media (DMEM) on ice and minced in a 10 cm dish (on ice) using sterile forceps and scalpel. Minced tumor was resuspended in DMEM (4.5 mM glucose, […] sodium pyruvate, 1:100 penicillin-streptomycin) (Coming CellGro, Manassas, VA)+10% FBS (Gemini Bio-Products, West Sacramento, CA), 100 U/mL collagenase type IV (Life Technologies, Carlsbad, CA), and 15 mM HEPES (Life Technologies, Carlsbad, CA), except for CT26 tumors that were prepared in RPMI. Samples were pelleted and resuspended in 10-20 mL media. Red blood cells were removed from visibly bloody samples using RBC Lysis Buffer (Boston Bio-Products, Ashland, MA). […]
(§2) Two multiplex assays were performed utilizing a bead-based immunoassay approach, the Bio-Plex Pro™ Human Cytokine 40-plex Assay (Cat #171AK99MR2) and Bio-Plex Pro™ Mouse Cytokine Panel 1, 23-plex (Cat #M60009RDPD) on a Bio-plex 200 system (Cat #171000201). […] Fold changes relative to the MDOT/PDOT control were calculated and plotted as log 2FC. Lower and upper limits of quantitation (LLOQ/ULOQ) were imputed from standard curves for cytokines above or below detection. […]

CT26 MDOTS = test: as above; format: cell-based, murine; conditions: Cmpd1 1 μM ± anti-PD-1 10 μg/mL
Protocol: as §1, §2

CT26 and EMT6 cells = test: Re-implantation of CT26 and EMT6 cells after combination therapy (immunologic memory); format: in vivo, mice; conditions: previously treated with anti-PD-L1 + Compound 1
Protocol: Combination studies were performed by vivoPharm (Hummelstown, PA, USA). All procedures used in the performance of these studies were carried out in accordance with vivoPharm's Standard Operating Procedures, with particular reference to US_SOPvP_EF0314 “General Procedures for Efficacy Studies.” CT26 colon carcinoma cells (1×10^6 cells/mouse in 100 μL, passage 2-3) were re-suspended in serum-free DMEM and implanted in the upper right flank of 11-12 week old female Balb/c mice (Charles River Laboratories). Mice were randomized into four groups of 10 using a matched pair distribution method based on tumor size for CT26. Treatment was initiated 12 days post-inoculation with mean tumor volume at start of dosing of 125.85 mm^3. Vehicle or Compound 1 (40 mg/kg) was administered by oral gavage daily for 26 days and isotype control or a reverse chimera anti-PD-L1 cloned from literature reports (e.g., Deng, R. et al. MAbs (2016), the content of which is incorporated herein by reference in entirety) and placed into a mouse IgG1 framework (10 mg/kg) was administered every 5 days for a total of six doses. Investigators were not blinded to treatment groups. […] Mice were scarified on Day 13 and lung metastases were quantified (small≤1 mm, medium>1 mm and ≤3 mm, large>3 mm). No large lung metastases were detected.

MC38 allograft = test: In vivo Compound 1 combination treatment, allograft; set-up: species or system B6 mice; conditions: Cmpd1 + αPD-L1; not significant vs single-agent PD-L1
MB49 allograft = test: as above; set-up: species or system B6 mice; conditions: Cmpd1 + αPD-L1

## N#Cc1cc(-c2ncnc(Nc3ccc(N4CCN(C5COC5)CC4)cc3)n2)ccc1OC1CCOCC1 [Compound 1, 5-(4-((4-(4-(oxetan-3-yl)piperazin-1-yl)phenyl)amino)-1,3,5-triazin-2-yl)-2-((tetrahydro-2H-pyran-4-yl)oxy)benzonitrile]
B16F10 MDOTS
  G-CSF and related innate immune response cytokines in B16F10 MDOTS: without concomitant induction
CT26 MDOTS
  levels of CCL4, CCL3, and IL-10 in CT26 MDOTS: Decreased levels
CT26 and EMT6 cells
  growth of reimplanted CT26 in mice with exceptional responses to combination therapy: no growth
MC38 allograft
  in vivo survival, MC38 model, combination treatment: enhanced
MB49 allograft
  response to combination treatment in vivo, MB49 bladder carcinoma: enhanced response
